Laboratory results as given in patent US20070066601A1, “Combination of a serotonin reuptake inhibitor and a histamine 3 receptor antagonist, inverse agonist or partial agonist” (H. LUNDBECK A/S, priority 2003, published 2007).

What was measured:
[1] = test system: serotonin levels in ventral hippocampus; test: Microdialysis of brain serotonin levels in rats; type: in vivo, rat; details: for effect on 5-HT levels when compared to citalopram administration alone: P<0.0001
Description: Male albino rats of a Wistar-derived strain (285-320 g; Harlan, Zeist, The Netherlands) were used for the experiments. Upon surgery, rats were housed individually in plastic cages (35×35×40 cm), and had free access to food and water. Animals were kept on a 12 h light schedule (light on 7:00 a.m.). The experiments are concordant with the declarations of Helsinki and were approved by the animal care committee of the faculty of mathematics and natural science of the University of Groningen.
Microdialysis of brain serotonin levels was performed using home made I-shaped probes, made of polyacrylonitrile/sodium methyl sulfonate copolymer dialysis fiber (i.d. 220 μm, o.d. 300 μm, AN 69, Hospal, Italy). Preceding surgery rats were anaesthetised using isoflurane (O2/N2O; 300/300 ml/min). Lidocaine-HCl, 10 % (m/v) was used for local anaesthesia. Rats were placed in a stereotaxic frame (Kopf, USA), and probes were inserted into Ventral Hippcampus (V. Hippo, L +4.8 mm, […], V: −8.0 mm) and median prefrontal cortex (PFC, L −0.9 mm; AP: +3.5 mm relative to bregma; V: −6.0 mm (Paxinos and Watson, 1982). After insertion, probes were secured with dental cement.
Rats were allowed to recover for at least 24 h. Probes were perfused with artificial cerebrospinal fluid containing 147 mM NaCl, 3.0 mM KCl, 1.2 mM CaCl2, and 1.2 mM MgCl2, at a flow-rate of 1.5 μl/min (Harvard apparatus, South Natick, Mass., USA). 15 minute microdialysis samples were collected in HPLC vials containing 7.5 μl 0.02 M acetic acid for serotonin analysis.
Twenty-μl microdialysate samples were injected via an autoinjector (CMA/200 refrigerated microsampler, CMA, Sweden) onto a 100×2.0 mm C18 Hypersil 3 μm column (Bester, Amstelveen, the Netherlands) and separated with a mobile phase consisting of 5 g/L di-ammoniumsulfate, 500 mg/L EDTA, 50 mg/L heptane sulphonic acid, 4% methanol v/v, and 30 μI/L of triethylamine, pH 4.65 at a flow of 0.4 ml/min (Shimadzu LC-10 AD). 5-HT was detected amperometrically at a glassy carbon electrode at 500 mV vs Ag/AgCl (Antec Leyden, Leiden, The Netherlands). The detection limit was 0.5 fmol 5-HT per 20 μl sample (signal to noise ratio 3).
Four consecutive microdialysis samples with less then 20% variation were taken as control and set at 100%. Data are presented as percentages of control level (mean±S.E.M.) in time. Statistical analysis was performed using Sigmastat for Windows (SPSS, Jandel Corporation). Treatments were compared versus controls using two way analysis of variance (ANOVA) for repeated measurements, followed by Student Newman Keuls test. Level of significance level was set at p<0.05.

[2] = test system: cortex synaptosomes; details: cited from earlier work

For S=C(NC1CCCCC1)N1CCC(c2cnc[nH]2)CC1 [thioperamide, Thioperamide], the “effect on 5-HT levels when compared to citalopram administration alone” value ([1]; co-administration of citalopram 10 μmol/kg with thioperamide 5 mg/kg s.c.) is listed as “augmented effect”, the “effects on serotonin levels in ventral hippocampus” value ([1]; thioperamide alone, 5 mg/kg s.c., P=0.44 n.s.) is listed as “did not induce any effects” and the “effect on the inhibition of evoked serotonin release by R-(alphe)-methylhistamine” value [2] is listed as “reversed”.

For O=C(c1ccc(OCCCc2cnc[nH]2)cc1)C1CC1 [ciproxifan, Ciproxifan], the “effects on serotonin levels in ventral hippocampus” value ([1]; ciproxifan alone, 15 mg/kg s.c., P=0.54 n.s.) was “did not induce any effects” and the “effect on 5-HT levels when compared to citalopram administration alone” value ([1]; co-administration of citalopram 10 μmol/kg with ciproxifan 15 mg/kg s.c.) was “augmented effect”.

In the case of C[C@@H](N)Cc1cnc[nH]1 [R-(alphe)-methylhistamine], the “effect on electrical evoked release of tritiated serotonin” value [2] is listed as “inhibited”.
